Where a SMILES comes first, the peptide text is derived from it. [ ]: non-standard residue; d: D form. Phe(3-F) = N[C@@H](Cc1cccc(F)c1)C(=O)O; Phg = N[C@H](C(=O)O)c1ccccc1; Thz = O=C(O)[C@@H]1CSCN1
Key:
mice fed a high-fat diet [1] = test: High-fat diet-induced obesity: body weight, food intake, body composition, adipocyte volume; assay type: in vivo; conditions: daily i.p. 5 mg/kg; for body weight gain vs vehicle, parental and negative control peptide groups: 12-week feeding period; for percentage of perigonadal fat mass / adipocyte volume: 12 weeks; for percentage of perigonadal fat mass: NMR, vehicle 8 ± 0.8%; for adipocyte volume: adipocytes from epididymal fat pad, vehicle 510 ± 42 pL
Protocol: (§1) All experiments were approved by the institutional Animal Care and Use Committee (Chengdu Medical College, China). All experiments were carried out in 10-week-old male mice maintained on the C57BL/6 background. All the animals were kept on a 12-h light/dark cycle with free access to food and water.
(§2) Animals (n = 90) were randomly assigned to one of the nine groups (Table 1). Animals were fed ad libitum with a high-fat diet (60% of caloric intake from fat (70% saturated fat), 20% from carbohydrates, and 20% from protein) before experiments and for another 12 weeks during the experiments. Food intake was measured manually on a daily basis. Eight groups of animals were treated with indicated peptides with a daily i.p. injection at 5 mg/kg and one group of animals were treated with vehicle.
Body composition was measured using nuclear magnetic resonance (NMR) technology at Chengdu College core facility. Epididymal fat pads were excised and adipocytes were isolated. Cells were then fixed using 2% OsO4 in PBS overnight at 37°C [2].

Cbl (RING) protein = target: T1, Cbl (RING) protein (Homo sapiens, UniProt P22681); test: Fluorescence polarization (FP) assay, competition with FITC-βA-PFKPP-NH2 probe; assay type: binding; conditions: probe FITC-βA-PFKPP-NH2 100 nmol/L, Cbl (RING) protein 3 μmol/L, PBS pH 7.4
T1 construct: including the linker and RING domain (codon 358–457); GST (Glutathione S-Transferase); made in house
T1 sequence (P22681 358-457): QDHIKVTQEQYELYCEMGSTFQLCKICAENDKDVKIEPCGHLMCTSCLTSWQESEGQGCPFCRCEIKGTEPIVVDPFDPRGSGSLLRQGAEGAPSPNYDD
Protocol: Peptides and peptide mimetics were purchased from MitenChem (China) with a purity ≥ 98%. Concentrations values of reconstituted peptides were determined by amino acid analysis at the protein core facility (Chengdu Medical College). The recombinant Cbl protein was produced by the Chengdu Medical College Protein Core Facility and was described previously. The c-Cbl (RING) protein, including the linker and RING domain (codon 358–457), was tagged with Glutathione S-Transferase (GST) and purified with GSH-Sepharose (Shanghai Biopharma).
The FP assay was developed and validated previously. Briefly, fluorescein-labeled probe (FITC-βA-PFKPP-NH2, 100 nmol/L) and Cbl (RING) protein (3 μmol/L) were mixed and diluted to the final concentration using 0.01% Triton X-100 in PBS (pH = 7.4). Then, 19 μl of this master mix was loaded to each reaction well. The peptides or peptide mimetics were then loaded to the designated wells (1 μl, 10 μmol/L– 0.078 μmol/L, half-fold dilutions). The total fluorescence and polarization values were measured at an excitation wavelength of 485 nm and an emission wavelength of 538 nm using a ZS-2 plate reader. The data was fitted, and the ΔmP, Kd, and Ki values were estimated, using SigmaPlot 11.0.

mice fed a high-fat diet [2] = test: Glucose tolerance test after 12 weeks of treatment on high-fat diet; assay type: in vivo; conditions: overnight fasted mice, 2 g/kg glucose i.p., after 12 weeks daily i.p. 5 mg/kg on high-fat diet
Protocol: as §1, §2
After receiving 12 weeks of treatment as described above, glucose tolerance tests were performed in overnight fasted mice. Each mouse received a 2 g/kg glucose through i.p. Blood samples were obtained from the tail tip at 0, 30, 60, 90, and 120 min. Insulin concentrations were measured using mouse insulin Elisa kits (ChrystalChem) using mouse standards. Glucose levels were measured using a glucometer (Roche).

mice = test: Acute toxicity in mice; assay type: in vivo; conditions: up to 15 mg/kg i.p.; for signs of acute toxicity: 72 hours; for death of animals: another 14 days following the initial examination; for H&E staining of livers, spleens and kidneys: end of experiment
Protocol: as §1
The control group (n = 10) received vehicle only. Eight groups (10 mice each) were treated with increasing doses of either peptide 1, 3, 10, 34, 2, 60, 49, and 51 up to 15 mg/kg by i.p. Number of death, sedation, spontaneous motor activity, alertness, ptosis, dyspnea, convulsion, diarrhea, urination, postural reflex, piloerection, nociception, grooming, vocalization, rearing, climbing and aggression were observed every 12 hours for 72 h. Animals were maintained for another 14 days after the initial examination. We planned to sacrifice the animals if they show severe signs of pain or distress, a body weight loss in excess of 15% of its body weight, or a deterioration of the body condition score to BC2(-) or below. However, none of the animals qualified for the mentioned the symptoms. No animals died during the whole study. At the end of the experiment, animals were euthanized by CO2 asphyxiation followed by cervical dislocation, the livers, spleens and kidneys were collected and formalin-fixed paraffin-embedded for H&E staining.

[3] = Pharmacokinetic studies, plasma concentration after i.p. injection; assay type: in vivo; conditions: mice, i.p. 4 mg/kg; for Cmax: male, C57BL/6, mouse, plasma, ip, observed in 60 min, read-out: maximum concentration in plasma; for plasma concentrations compared to the parental peptides 1 and 2: at each time point after 1 hour
Protocol: as §1
Peptides (1, 3, 10, 34, 2, 60, 49, and 51) were dissolved in sterile aqueous 5% dextrose and administered to mice by i.p. injection (4 mg/kg). Blood samples were collected from the tail tip at 0, 0.5, 1, 6, 12, 18, 24 and 48 hours. Plasma samples were harvested by centrifugation and stored at -80°C until assayed. Peptide concentrations in plasma were determined by Reversed-Phase High-Performance Liquid Chromatography (RP-HPLC) with electrospray ionization mass spectrometric ([…]) detection. Samples were assayed with a series of 8 calibration standards of peptide in plasma at concentrations ranging from 50 to 6000 μg/L. Peptide concentrations were determined by comparing to the standards.

mice fed a high-fat diet [4] = test: Indirect energy expenditure and physical activity measurement; assay type: in vivo; conditions: after 12 weeks daily i.p. 5 mg/kg on high-fat diet; for Oxygen consumption VO2: vehicle 4.15 ± 0.55; for Ambulatory day activity / Ambulatory night activity: photobeam break counts; for Ambulatory day activity: vehicle 2,069 ± 705; for Ambulatory night activity: vehicle 6,289 ± 1,216
Protocol: as §1, §2
After receiving 12 weeks of treatment as described above, rates of oxygen consumption (VO2) was measured using a four-chamber indirect calorimeter (Langguan, China, air flow of 0.5 l/min). A total of 2-hour measurement for each animal was conducted at 15-minuate intervals under room temperature (22°C). Ambulatory activity was estimated by counting the number of photobeam breaks in a three-sensor chamber instrument (Rui Pharm, China), and the cumulative ambulatory activity counts were recorded every hour. A total of 12 h-day time and 12 h-night activity were recorded for each animal.

Compound	body weight gain vs vehicle, parental and negative control peptide groups (mice fed a high-fat diet [1])	percentage of perigonadal fat mass (mice fed a high-fat diet [1]) [%]	adipocyte volume (mice fed a high-fat diet [1]) [pL]	Ki (Cbl (RING) protein) [µM]	blood insulin levels compared to the vehicle group (mice fed a high-fat diet [2])	glucose tolerance compared to the vehicle group (mice fed a high-fat diet [2])	signs of acute toxicity (mice)	death of animals (mice)	H&E staining of livers, spleens and kidneys (mice)	Cmax [3] [ng/mL]	plasma concentrations compared to the parental peptides 1 and 2 [3]	Oxygen consumption VO2 (mice fed a high-fat diet [4]) [mL/g/h]	Ambulatory day activity (mice fed a high-fat diet [4])	Ambulatory night activity (mice fed a high-fat diet [4])
CC(=O)N1CCC[C@H]1C(=O)N[C@@H](Cc1cccc(F)c1)C(=O)N[C@@H](CCCCN)C(=O)N1CCC[C@H]1C(=O)N1CCC[C@H]1C(N)=O [Peptide 10, Ac-P(h)KPP-NH2] (Ac-P[Phe(3-F)]KPP-NH2)	significant differences in body weight gain	3.5 ± 0.5	295 ± 31	1.8 ± 0.8	significant reduction in blood insulin levels	better glucose tolerance	did not show vital signs of acute toxicity	None of the animals died	does not show any sign of injuries	4520	greater plasma concentrations	5.92 ± 0.36	3,512 ± 923 per 12 h	12,896 ± 2,469 per 12 h
CC(=O)N1CSC[C@H]1C(=O)N[C@@H](Cc1cccc(F)c1)C(=O)N[C@@H](CCCCN)C(=O)N1CCC[C@H]1C(=O)N1CCC[C@H]1C(N)=O [Peptide 34, Ac-(r) (h)KPP-NH2] (Ac-[Thz][Phe(3-F)]KPP-NH2)	significant differences in body weight gain	3.0 ± 0.9	258 ± 29	1.5 ± 0.4	significant reduction in blood insulin levels	better glucose tolerance	did not show vital signs of acute toxicity	None of the animals died	does not show any sign of injuries	5020	greater plasma concentrations	5.88 ± 0.85	3,485 ± 864 per 12 h	–
CC(=O)N[C@@H](CCCCN)C(=O)N1CSC[C@H]1C(=O)N[C@@H](C)C(=O)N[C@H](C(=O)N[C@@H](CCCCN)C(N)=O)[C@@H](C)O [Peptide 49, Ac-K(r)ATK-NH2] (Ac-K[Thz]ATK-NH2)	significant differences in body weight gain	3.9 ± 0.4	230 ± 38	2.9 ± 1.2	significant reduction in blood insulin levels	better glucose tolerance	did not show vital signs of acute toxicity	None of the animals died	does not show any sign of injuries	4680	greater plasma concentrations	6.12 ± 0.58	4,012 ±1,207 per 12 h	20,126 ± 2,914 per 12 h
CC(=O)N1CCC[C@H]1C(=O)N[C@H](C(=O)N[C@@H](CCCCN)C(=O)N1CCC[C@H]1C(=O)N1CCC[C@H]1C(N)=O)c1ccccc1 [Peptide 3, Ac-P(a)KPP-NH2] (Ac-P[Phg]KPP-NH2)	–	7.1 ± 0.4	505 ± 34	> 500	–	not statistically significant	did not show vital signs of acute toxicity	None of the animals died	does not show any sign of injuries	4020	greater plasma concentrations	3.78 ± 0.29	2,158 ± 763 per 12 h	6,058 ± 1,298 per 12 h
